Five compounds from patent publication US6610709B1, “2-n-substituted or unsubstituted-2-amino-5-methylpiperidine-3,4-diols and processes for the preparation thereof” (Zaidan Hojin Biseibutsu Kagaku Kenkyu Kai, priority 1999, dated 2003) can be followed below.

The target in assay [1] is β-D-glucosidase (from almonds). The assay is described as follows: β-glucosidase-inhibitory activity assay (Test Example 2). Type of assay: biochemical, almond. The settings on record: substrate p-nitrophenyl β-D-glucoside, same manner as Test Example 1. As to the method: (§1) Thus, 0.5 mL of 0.025M citrate-phosphate buffer (pH 6.3), 0.1 mL of the same buffer containing 1.5 mM p-nitrophenyl α-L-fucopyranoside dissolved therein, and 0.1 mL of either water or an aqueous solution containing as the tested compound any one of the compounds of the formulae (Ia), (Ib), (Ic) and (Id) according to this invention were mixed with each other and pre-incubated in a 96-well titer plate at 37° C. for 10 minutes. After the completion of the pre-incubation, to the pre-incubated mixture was added 0.01 mL of 0.025M citrate-phosphate buffer containing α-L-fucosidase (a product of Sigma Company, originated from bovine liver) dissolved therein, and thereafter the enzymatic reaction was conducted at 37° C. for 60 minutes. After the enzymatic reaction, to the resulting reaction solution was added 1.0 mL of 0.2M glycine-sodium hydroxide buffer (pH 10.5), in order to terminate the enzymatic reaction. Thereafter, the absorbance (designated as “a”) of light at 405 nm of the resulting reaction solution was measured. Concurrently, measurement was made of the absorbance (designated as “b”) of light at 405 nm of the reaction solution as obtained in the control test where the enzymatic reaction was conducted without addition of the test compound. Further, measurements were made of the absorbance (designated as “a′”) and the absorbance (designated as “b′”) of light at 405 nm of the reaction solutions as obtained in the blank tests where the enzymatic reaction had not been conducted in the assay test, and also in the control test for the blank tests, respectively.
(§2) The rate of inhibition to α-L-fucosidase was calculated by the equation: […]
This Test Example is a test example for determining the α-glucosidase or β-glucosidase-inhibitory activity of the compounds according to this invention.
The evaluation of the α- or β-glucosidase-inhibitory activity was conducted according to a modification of the method described in the “Agricultural and Biological Chemistry”, 26, p.203 (1962). Namely, the test was conducted in the same manner as the test for the enzyme-inhibitory activity described in Test Example 1, except that either α-glucosidase originated from yeast, or β-glucosidase originated from almond (both enzymes are products of Sigma Company) was used as the glycosidase enzyme, and that p-nitrophenyl α-D-glucoside or p-nitrophenyl β-D-glucoside was used as the substrate. Furthermore, the enzyme-inhibitory activity was measured in the same manner as in Test Example 1, and the 50% inhibitions of the tested compounds against the enzymes were calculated, respectively.

Assay [2] deals with T1, α-L-fucosidase (from bovine liver) (Bos taurus, UniProt Q2KIM0).
T1 construct: a product of Sigma Company, originated from bovine liver; purchased Sigma; host or cells: bovine liver
T1 sequence (Q2KIM0 23-468): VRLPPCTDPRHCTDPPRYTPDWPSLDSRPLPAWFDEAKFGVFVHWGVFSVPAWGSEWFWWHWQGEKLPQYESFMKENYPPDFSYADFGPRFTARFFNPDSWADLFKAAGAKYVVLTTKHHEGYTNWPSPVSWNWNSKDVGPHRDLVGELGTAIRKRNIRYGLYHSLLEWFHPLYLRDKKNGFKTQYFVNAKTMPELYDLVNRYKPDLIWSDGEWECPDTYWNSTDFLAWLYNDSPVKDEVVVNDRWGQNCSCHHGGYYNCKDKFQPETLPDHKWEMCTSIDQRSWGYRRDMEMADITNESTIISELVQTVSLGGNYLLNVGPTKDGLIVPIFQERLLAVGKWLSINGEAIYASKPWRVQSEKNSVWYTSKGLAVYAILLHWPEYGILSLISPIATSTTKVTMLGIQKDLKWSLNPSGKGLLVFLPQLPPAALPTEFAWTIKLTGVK
The assay is described as follows: α-fucosidase-inhibitory activity assay (Test Example 1). The class given is biochemical. The settings on record: substrate p-nitrophenyl α-L-fucopyranoside, citrate-phosphate buffer pH 6.3, 37° C., 60 minutes, read-out: 50% Inhibiory Concentration (IC50) Enzyme A (converted). As for the experimental part: This Test Example is a test example for determining the α-fucosidase-inhibitory activity of the compound of the general formula (I) according to this invention.
Assay of the α-fucosidase-inhibitory activity was conducted according to a modification of the method described in the “Journal of Biological Chemistry”, 252, pp.5194-5200 (1977).
as §1, §2

For `C[C@@H]1CN[C@@H](N2C(=O)c3ccccc3C2=O)[C@H](O)[C@@H]1O` [Compound of the Formula (Id), (2S,3S,4R,5R)-2-phthalimido-5-methylpiperidine-3,4-diol], the “50% Inhibiory Concentration (IC50) Enzyme C” value in assay [1] was 60 µg/mL. Also, in assay [2], the IC50 was 14.5 nM.
Taken in the same sequence, the figures for `C[C@@H]1CN[C@@H](NC(=O)C(F)(F)F)[C@H](O)[C@@H]1O` [Compound of the Formula (Ib), (2S,3S,4R,5R)-2-trifluoroacetamido-5-methyl-piperidine-3,4-diol] were 55 µg/mL and 12.4 nM.
On the same counts, the results for `CC(=O)N[C@@H]1NC[C@@H](C)[C@@H](O)[C@H]1O` [Compound of the Formula (Ia), (2S,3S,4R,5R)-2-acetamido-5-methylpiperidine-3,4-diol] are 2.3 µg/mL and 584 nM.
Taken in the same sequence, the figures for `C[C@@H]1CN[C@@H](NC(=O)C(Cl)(Cl)Cl)[C@H](O)[C@@H]1O` [Compound of the Formula (Ic), (2S,3S,4R,5R)-2-trichloroacetamido-5-methyl-piperidine-3,4-diol] were 50 µg/mL and 10.3 nM.
`C[C@@H]1CN[C@@H](N)[C@H](O)[C@@H]1O` [Compound of the Formula (Ie), (2R,3S,4R,5R)-2-amino-5-methylpiperidine-3,4-diol]: the “50% Inhibiory Concentration (IC50) Enzyme C” value in assay [1] stood at 50 µg/mL. Also, the IC50 in assay [2] was 20.5 nM.
